In patent US10294202B2, “Pyrrolidinones as herbicides” (FMC Corporation, priority 2013, dated 2019):

What was measured:
wheat = experiment: Test A pre-/postemergence herbicide test; format: in vivo, Triticum aestivum; settings: Postemergence; for Plant response rating, Wheat: 125 g ai/ha, 0 to 100 scale, 0 no effect, 100 complete control; for Wheat plant response rating (0 to 100 scale, 0 is no effect, 100 is complete control): 500 g ai/ha
Method in brief: (§1)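 Visual 0–100 ratings (100 = complete control) made about 10 days after treatment, greenhouse-held plants compared with untreated controls. Treatments: postemergence sprays on one- to two-leaf plants (2–10 cm tall) and preemergence directed soil sprays after planting in loam–sand, chemicals formulated in non-phytotoxic solvent containing surfactant.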

blackgrass = experiment: Test A postemergence herbicide test; format: in vivo, Alopecurus myosuroides; settings: for Plant response rating, Blackgrass: 125 g ai/ha, 0 to 100 scale, 0 no effect, 100 complete control; for Blackgrass plant response rating (0 to 100 scale, 0 is no effect, 100 is complete control): 500 g ai/ha
Method in brief: (§2)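 Potted in loam soil/sand blend; postemergence application at 1–2 leaf stage (2–10 cm). Greenhouse ~10 d. Visual injury vs untreated, 0–100 scale; 100 = complete control.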

sedge, umbrella = experiment: Test B flooded paddy test; format: in vivo, Cyperus difformis; settings: 500 g ai/ha, Flood; scale of 0 to 100 where 0 is no effect and 100 is complete control
Method in brief: (§3)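 First, plants reach the 2-leaf stage; next, pots are flooded to 3 cm and compound is delivered into the water; finally, after 13 to 15 greenhouse days at constant depth, injury is graded visually from 0 to 100 against controls.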

galium = experiment: Test A postemergence herbicide test; format: in vivo, Galium aparine; settings: for Plant response rating, Galium: 125 g ai/ha, 0 to 100 scale, 0 no effect, 100 complete control; for Galium plant response rating (0 to 100 scale, 0 is no effect, 100 is complete control): 500 g ai/ha
Method in brief: as §2

giant foxtail = experiment: Test A pre-/postemergence herbicide test; format: in vivo, Setaria faberii; settings: for Plant response rating, Foxtail, Giant: 0 to 100 scale
Method in brief: as §1

kochia = experiment: Test A pre-/postemergence herbicide test; format: in vivo, Kochia scoparia; settings: for Plant response rating, Kochia: 0 to 100 scale
Method in brief: as §1

ducksalad = experiment: Test B flooded paddy test; format: in vivo, Heteranthera limosa; settings: 500 g ai/ha, Flood; scale of 0 to 100 where 0 is no effect and 100 is complete control
Method in brief: as §3

ragweed = experiment: Test A pre-/postemergence herbicide test; format: in vivo, Ambrosia elatior; settings: for Plant response rating, Ragweed: 0 to 100 scale
Method in brief: as §1

pigweed = experiment: Test A pre-/postemergence herbicide test; format: in vivo, Amaranthus retroflexus; settings: for Plant response rating, Pigweed: 0 to 100 scale
Method in brief: as §1

barnyardgrass [1] = experiment: Test A pre-/postemergence herbicide test; format: in vivo, Echinochloa crus-galli
Method in brief: as §1

corn = experiment: Test A pre-/postemergence herbicide test; format: in vivo, Zea mays; settings: Postemergence; for Plant response rating, Corn: 125 g ai/ha, 0 to 100 scale, 0 no effect, 100 complete control; for Corn plant response rating (0 to 100 scale, 0 is no effect, 100 is complete control): 500 g ai/ha
Method in brief: as §1

rice = experiment: Test B flooded paddy test; format: in vivo, Oryza sativa; settings: 500 g ai/ha, Flood; scale of 0 to 100 where 0 is no effect and 100 is complete control
Method in brief: as §3

barnyardgrass [2] = experiment: Test B flooded paddy test; format: in vivo, Echinochloa crus-galli; settings: 500 g ai/ha, Flood; scale of 0 to 100 where 0 is no effect and 100 is complete control
Method in brief: as §3

ryegrass, Italian = experiment: Test A pre-/postemergence herbicide test; format: in vivo, Lolium multiflorum; settings: for Plant response rating, Ryegrass, Italian: 0 to 100 scale
Method in brief: as §1

[3] = 125 g ai/ha, visual rating, 0 no effect, 100 complete control, approximately 10 days, preemergence
[4] = Postemergence, 125 g ai/ha, 0 no effect, 100 complete control
[5] = 125 g ai/ha, visual rating, 0 to 100 scale, 0 no effect, 100 complete control, approximately 10 days, preemergence
[6] = Postemergence, 125 g ai/ha, 0 to 100 scale, 0 no effect, 100 complete control
[7] = preemergence, 500 g ai/ha, 0 to 100 scale (0 no effect, 100 complete control)

Compound | Plant response rating, Wheat (wheat) | Wheat plant response rating (0 to 100 scale, 0 is no effect, 100 is complete control) (wheat) | Plant response rating, Blackgrass (blackgrass) | Blackgrass plant response rating (0 to 100 scale, 0 is no effect, 100 is complete control) (blackgrass) | Plant response rating, Sedge, Umbrella (sedge, umbrella) | Plant response rating, Galium (galium) | Galium plant response rating (0 to 100 scale, 0 is no effect, 100 is complete control) (galium) | Plant response rating, Foxtail, Giant (giant foxtail; [3]) | Plant response rating, Foxtail, Giant (giant foxtail; [4]) | Foxtail, Giant plant response rating (0 to 100 scale, 0 is no effect, 100 is complete control) (giant foxtail; Postemergence, 500 g ai/ha) | Plant response rating, Foxtail, Giant (giant foxtail; preemergence, 500 g ai/ha) | Plant response rating, Kochia (kochia; [3]) | Plant response rating, Kochia (kochia; [4]) | Kochia plant response rating (0 to 100 scale, 0 is no effect, 100 is complete control) (kochia; Postemergence, 500 g ai/ha) | Plant response rating, Kochia (kochia; preemergence, 500 g ai/ha) | Plant response rating, Ducksalad (ducksalad) | Plant response rating, Ragweed (ragweed; [3]) | Plant response rating, Ragweed (ragweed; [4]) | Ragweed plant response rating (0 to 100 scale, 0 is no effect, 100 is complete control) (ragweed; Postemergence, 500 g ai/ha) | Plant response rating, Ragweed (ragweed; preemergence, 500 g ai/ha) | also measured
Cc1ccc(C2CNC(=O)C2C(=O)Nc2ccc(F)c(F)c2F)cc1F (racemic) [Compound 147] | 0 | 40 | 40 | 60 | 0 | 50 | 60 | 80 | 40 | 70 | 90 | 30 | 40 | 60 | 80 | 100 | 0 | 0 | 50 | 50 | Plant response rating, Pigweed (pigweed; [3]): 0; Plant response rating, Pigweed (pigweed; [4]): 0; Pigweed plant response rating (0 to 100 scale, 0 is no effect, 100 is complete control) (pigweed; Postemergence, 500 g ai/ha): 10; Plant response rating, Pigweed (pigweed; preemergence, 500 g ai/ha): 0; Plant response rating, Barnyardgrass (barnyardgrass [1]; [5]): 90; Plant response rating, Barnyardgrass (barnyardgrass [1]; [6]): 90; Barnyardgrass plant response rating (0 to 100 scale, 0 is no effect, 100 is complete control) (barnyardgrass [1]; Postemergence, 500 g ai/ha): 90; Plant response rating, Barnyardgrass (barnyardgrass [1]; [7]): 90; Plant response rating, Corn (corn): 0; Corn plant response rating (0 to 100 scale, 0 is no effect, 100 is complete control) (corn): 50; Plant response rating, Rice (rice): 0; Plant response rating, Barnyardgrass (barnyardgrass [2]): 70; Plant response rating, Ryegrass, Italian (ryegrass, Italian; [3]): 0; Plant response rating, Ryegrass, Italian (ryegrass, Italian; [4]): 20; Ryegrass, Italian plant response rating (0 to 100 scale, 0 is no effect, 100 is complete control) (ryegrass, Italian; Postemergence, 500 g ai/ha): 50; Plant response rating, Ryegrass, Italian (ryegrass, Italian; preemergence, 500 g ai/ha): 40
Cc1ccc(C2CNC(=O)C2C(=O)Nc2ccc(F)cc2F)cc1 (racemic) [Compound 150] | 0 | 0 | 0 | 10 | 0 | 50 | 60 | 70 | 30 | 70 | 90 | 60 | 30 | 60 | 90 | 100 | 0 | 0 | 20 | 50 | Plant response rating, Pigweed (pigweed; [3]): 0; Plant response rating, Pigweed (pigweed; [4]): 0; Pigweed plant response rating (0 to 100 scale, 0 is no effect, 100 is complete control) (pigweed; Postemergence, 500 g ai/ha): 20; Plant response rating, Pigweed (pigweed; preemergence, 500 g ai/ha): 0; Plant response rating, Barnyardgrass (barnyardgrass [1]; [5]): 80; Plant response rating, Barnyardgrass (barnyardgrass [1]; [6]): 80; Barnyardgrass plant response rating (0 to 100 scale, 0 is no effect, 100 is complete control) (barnyardgrass [1]; Postemergence, 500 g ai/ha): 80; Plant response rating, Barnyardgrass (barnyardgrass [1]; [7]): 90; Plant response rating, Corn (corn): 0; Corn plant response rating (0 to 100 scale, 0 is no effect, 100 is complete control) (corn): 30; Plant response rating, Rice (rice): 0; Plant response rating, Barnyardgrass (barnyardgrass [2]): 80; Plant response rating, Ryegrass, Italian (ryegrass, Italian; [3]): 0; Plant response rating, Ryegrass, Italian (ryegrass, Italian; [4]): 0; Ryegrass, Italian plant response rating (0 to 100 scale, 0 is no effect, 100 is complete control) (ryegrass, Italian; Postemergence, 500 g ai/ha): 0; Plant response rating, Ryegrass, Italian (ryegrass, Italian; preemergence, 500 g ai/ha): 50
